The record followed here is US10188108B2, “Fused bicyclic heterocycle derivatives as pesticides” (BAYER CROPSCIENCE AKTIENGESELLSCHAFT, priority 2015, dated 2019).

Where two headings read alike, the source gives them in different places.

The nature of series [1]: log P by HPLC on a reversed-phase column (C 18), EEC Directive 79/831 Annex V.A8. It is filed as physicochemical. Conditions: for LOGP_NEUTRAL: pH 7.8, 0.001 molar aqueous ammonium hydrogencarbonate/acetonitrile; for chromatographic logP: reversed-phase HPLC column (C 18). The procedure: The log P values are measured according to EEC Directive 79/831 Annex V.A8 by HPLC (high-performance liquid chromatography) on a reversed-phase column (C 18). Temperature: 55° C.
The LC-MS determination in the acidic range is effected at pH 2.7 using 0.1% aqueous formic acid and acetonitrile (contains 0.1% formic acid) as eluents; linear gradient from 10% acetonitrile to 95% acetonitrile. Called log P (HCOOH) in the table.
LC-MS determination in the neutral range is effected at pH 7.8 with 0.001 molar aqueous ammonium hydrogencarbonate solution and acetonitrile as eluents; linear gradient from 10% acetonitrile to 95% acetonitrile. Called log P (neutral) in the table.
Calibration is carried out using unbranched alkan-2-ones (having 3 to 16 carbon atoms) with known log P values (log P values determined on the basis of the retention times by linear interpolation between two successive alkanones).

A further series has as its system Spodoptera frugiperda. Description: Spodoptera frugiperda - spray test. The class given is in vivo. Conditions: 500 g/ha, after 7 days, caterpillars on maize leaf discs. The procedure: (§1) • Solvent: 78.0 parts by weight of acetone • 1.5 parts by weight of dimethylformamide • Emulsifier: alkylaryl polyglycol ether
(§2) To produce a suitable preparation of active compound, 1 part by weight of active compound is dissolved using the stated parts by weight of solvent and made up with water containing an emulsifier concentration of 1000 ppm until the desired concentration is attained. To produce further test concentrations, the preparation is diluted with emulsifier-containing water.
Leaf discs of maize (Zea mays) are sprayed with an active compound preparation of the desired concentration and, after drying, populated with caterpillars of the armyworm (Spodoptera frugiperda).
After 7 days, the efficacy in % is determined. 100% means that all the caterpillars have been killed; 0% means that no caterpillars have been killed.

For another series, the system named is Phaedon cochleariae. Description: Phaedon cochleariae - spray test. The settings on record: after 7 days, larvae on Chinese cabbage leaf discs. It is filed as in vivo. How it is done: as §1, §2
After 7 days, the efficacy in % is determined. 100% means that all the beetle larvae have been killed; 0% means that no beetle larvae have been killed.

Setting [2] is: acidic range, pH 2.7, 0.1% aqueous formic acid/acetonitrile, 55° C.
The mark [3] stands for this setting: acidic range, pH 2.7, 0.1% aqueous formic acid/acetonitrile, 55° C., read-out: LOGP_HCOOH.
[4] abbreviates: neutral range, pH 7.8, value in preparation example text, read-out: log P (neutral).
Setting [5] is: acidic range, pH 2.7, value in preparation example text, read-out: log P (acidic).

In series [1] (setting [2]), `CCSc1c(-c2nc3cc(C(F)(F)F)ncc3n2C)nc2ccc(Cl)cn12` [Example I-3] gave an LOGP_HCOOH of 3.59. In the series with Spodoptera frugiperda, this compound displayed an efficacy of 100%.
As for `CCSc1c(-c2nc3cc(C(F)(F)F)cnc3o2)nc2ccccn12` [Example I-60, 2-[3-(Ethylsulphanyl)imidazo[1,2-a]pyridin-2-yl]-6-(trifluoromethyl) [1,3]oxazolo[5,4-b]pyridine], the LOGP_NEUTRAL in series [1] (neutral range, 55° C.) is on record as 3.15. Moreover, the chromatographic logP in series [1] (setting [3]) is 3.2; in series [1] (setting [4]) it was 3.15.
`CCSc1c(-c2nc3cc(C(F)(F)F)ncc3n2C)nc2cc(C(F)(F)F)ccn12` [Example I-16] yielded an LOGP_HCOOH in series [1] (setting [2]) of 3.80. In series [1] (neutral range, 55° C.), this compound gave an LOGP_NEUTRAL of 3.80. Also, the efficacy with Phaedon cochleariae (500 g/ha) and in the series with Spodoptera frugiperda was 100% throughout.
For the compound `CCS(=O)(=O)c1c(-c2nc3cc(C(F)(F)F)ccc3o2)nc2ccccn12` [Example I-12], in series [1] (setting [2]), the LOGP_HCOOH is on record as 2.92. Further, the LOGP_NEUTRAL in series [1] (neutral range, 55° C.) worked out at 2.94. Moreover, the efficacy with Phaedon cochleariae (500 g/ha) and in the series with Spodoptera frugiperda was 83% in each case.
With `CCS(=O)(=O)c1c(-c2nc3cc(C(F)(F)F)ccc3s2)nc2ccccn12` [Example I-43], in series [1] (setting [2]), the LOGP_HCOOH is reported as 3.60. Further, the efficacy in the series on Phaedon cochleariae (100 g/ha) was found to be 83%.
Consider `CCOC(=O)c1nc2ccccn2c1S(=O)(=O)CC` [XXIV-1, Ethyl 3-(ethylsulphonyl)imidazo[1,2-a]pyridine-2-carboxylate], for which the chromatographic logP in series [1] (setting [4]) was 1.52.
In the case of `CCSc1c(-c2nc3cc(C(F)(F)F)ncc3n2C)nc2ccc(C)cn12` [Example I-45], the LOGP_HCOOH in series [1] (setting [2]) came out at 3.20. The LOGP_NEUTRAL in series [1] (neutral range, 55° C.) is 3.22.
In series [1] (setting [2]), `CC[S+]([O-])c1c(-c2nc3cc(C(F)(F)F)ncc3n2C)nc2c(C(F)(F)F)cccn12` (stereo not drawn) [Example I-25] gave an LOGP_HCOOH of 3.29. In series [1] (neutral range, 55° C.), the LOGP_NEUTRAL stood at 3.21. Also, the efficacy in the series with Phaedon cochleariae (500 g/ha) and with Spodoptera frugiperda was 100% throughout.
On to `CCSc1c(-c2nc3cc(C(F)(F)F)cnc3o2)nc2ccc(C(F)(F)F)cn12` [Example I-58], for which the LOGP_HCOOH in series [1] (setting [2]) stood at 4.14.
Regarding `CC[S+]([O-])c1c(-c2nc3cc(C(F)(F)F)ncc3n2C)nc2ccc(C(F)(F)F)cn12` (stereo not drawn) [Example I-8], the LOGP_HCOOH in series [1] (setting [2]) amounted to 3.25. In addition, the efficacy in the series with Phaedon cochleariae (500 g/ha) and with Spodoptera frugiperda was 100% in each case.
`CCS(=O)(=O)c1c(-c2nc3cc(C(F)(F)F)ncc3n2C)nc2c(C(F)(F)F)cccn12` [Example I-24] showed an LOGP_HCOOH in series [1] (setting [2]) of 2.92. The LOGP_NEUTRAL in series [1] (neutral range, 55° C.) is given as 2.90. The efficacy in the series on Phaedon cochleariae (500 g/ha) and with Spodoptera frugiperda was 100% throughout.
Compound `CCSc1c(-c2nc3cc(C(F)(F)F)ccc3n2C)nc2cccc(C)n12` [Example I-26] had an LOGP_HCOOH in series [1] (setting [2]) of 3.35. In the series on Phaedon cochleariae (500 g/ha), this compound showed an efficacy of 83%.
In the case of `CCSc1cccc2nc(-c3nc4cc(C(F)(F)F)ccc4n3C)c(SCC)n12` [Example I-31], in series [1] (setting [2]), the LOGP_HCOOH is on record as 3.95.
On to `Cn1c(-c2nc3ccccn3c2Cl)nc2cc(C(F)(F)F)ncc21` [Example V-1, 2-(3-Chloroimidazo[1,2-a]pyridin-2-yl)-3-methyl-6-(trifluoromethyl)imidazo[4,5-c]pyridine], for which the chromatographic logP in series [1] (setting [4]) is 2.38.
Consider `CCSc1c(-c2nc3cc(C(F)(F)F)ncc3n2C)nc2ccc(C(F)(F)F)cn12` [Example I-5], for which the LOGP_HCOOH in series [1] (setting [2]) is listed as 3.81. In addition, the LOGP_NEUTRAL in series [1] (neutral range, 55° C.) turned out to be 3.75. Moreover, the efficacy in the series with Spodoptera frugiperda turned out to be 100%.
As for `CCSc1c(-c2nc3cc(C(F)(F)F)ccc3n2C)nc2ccc(C(F)(F)F)cn12` [Example I-28], the LOGP_HCOOH in series [1] (setting [2]) is given as 4.47. The efficacy with Spodoptera frugiperda worked out at 100%.
In series [1] (setting [2]), `CCSc1c(-c2nc3cc(C(F)(F)F)cnc3o2)nc2cc(C(F)(F)F)ccn12` [Example I-50] gave an LOGP_HCOOH of 4.14. The efficacy in the series on Phaedon cochleariae (500 g/ha) and with Spodoptera frugiperda was 100% in each case.
Turning to `O=C(O)c1nc2cc(C(F)(F)F)ccn2c1Cl` [III-1, 3-Chloro-7-(trifluoromethyl)imidazo[1,2-a]pyridine-2-carboxylic acid], the chromatographic logP in series [1] (setting [5]) came out at 1.5.
On to `CCSc1c(-c2nc3cc(C(F)(F)F)ncc3n2C)nc2c(Cl)cccn12` [Example I-14], for which, in series [1] (setting [2]), the LOGP_HCOOH is 3.33. The compound also showed an LOGP_NEUTRAL in series [1] (neutral range, 55° C.) of 3.34.
`CCS(=O)(=O)c1c(-c2nc3cc(C(F)(F)F)ccc3n2C)nc2ccc(Cl)cn12` [Example I-42] showed an LOGP_HCOOH in series [1] (setting [2]) of 3.34. The efficacy in the series on Phaedon cochleariae (500 g/ha) and with Spodoptera frugiperda was 100% in each case.
With `CCS(=O)(=O)c1c(-c2nc3cc4c(cc3[nH]2)OC(F)(F)O4)nc2ccccn12` [Example I-40, 6-[3-(Ethylsulphonyl)imidazo[1,2-a]pyridin-2-yl]-2,2-difluoro-5H-[1,3]dioxolo[4,5-f]benzimidazole], in series [1] (neutral range, 55° C.), the LOGP_NEUTRAL is listed as 2.59. The chromatographic logP in series [1] (setting [3]) is 2.51; in series [1] (setting [4]) it was 2.59. In the series with Phaedon cochleariae (500 g/ha), the efficacy came out at 100%.
Turning to `CCS(=O)(=O)c1c(-c2nc3cc(C(F)(F)F)cnc3o2)nc2cc(C(F)(F)F)ccn12` [Example I-49], the LOGP_HCOOH in series [1] (setting [2]) was found to be 3.53. In addition, the efficacy with Phaedon cochleariae (500 g/ha) and in the series on Spodoptera frugiperda was 100% throughout.
In series [1] (setting [2]), `CCSc1c(-c2nc3cc(C(F)(F)F)cnc3o2)nc2cccc(C(F)(F)F)n12` [Example I-57] returned an LOGP_HCOOH of 4.11.
`CCS(=O)(=O)c1c(C(=O)O)nc2ccccn12` [XXIII-1, 3-(Ethylsulphonyl)imidazo[1,2-a]pyridine-2-carboxylic acid]: the chromatographic logP in series [1] (setting [5]) turned out to be 0.54.
As for `CCSc1c(-c2nc3cc(C(F)(F)F)ccc3n2C)nc2ccccn12` [Example I-9], the LOGP_HCOOH in series [1] (setting [2]) stood at 3.25. The LOGP_NEUTRAL in series [1] (neutral range, 55° C.) is given as 3.41. Further, in the series on Phaedon cochleariae (500 g/ha), the efficacy was 100%.
Turning to `CCSc1cccn2c(SCC)c(-c3nc4cc(C(F)(F)F)ncc4n3C)nc12` [Example I-15], the LOGP_HCOOH in series [1] (setting [2]) was found to be 3.99. In series [1] (neutral range, 55° C.), this compound came in with an LOGP_NEUTRAL of 3.93.
For `CCSc1c(C(=O)Nc2cc(C(F)(F)F)cnc2Cl)nc2ccccn12` [XXVI-1, N-[2-Chloro-5-(trifluoromethyl)pyridin-3-yl]-3-(ethylsulphanyl)imidazo[1,2-a]pyridine-2-carboxamide], the chromatographic logP in series [1] (setting [4]) came out at 4.39.
Take `CCSc1c(-c2nc3cc(C(F)(F)F)ccc3n2C)nc2cc(C)ccn12` [Example I-37]: the LOGP_HCOOH in series [1] (setting [2]) was 3.41.
Same read-out and setting: the value for `CCSc1c(-c2nc3cc(C(F)(F)F)ccc3n2C)nc2cccc(C(F)(F)F)n12` [Example I-27] was 4.09.
For `CCSc1c(-c2nc3cc(C(F)(F)F)ncc3n2C)nc2c(C(F)(F)F)cccn12` [Example I-13], the LOGP_HCOOH in series [1] (setting [2]) turned out to be 1.40. Moreover, the LOGP_NEUTRAL in series [1] (neutral range, 55° C.) was found to be 3.71. Further, the efficacy in the series on Phaedon cochleariae (500 g/ha) and with Spodoptera frugiperda was 100% throughout.
For `CCS(=O)(=O)c1c(-c2nc3cc(C(F)(F)F)ccc3n2C)nc2ccc(C(F)(F)F)cn12` [Example I-36], the LOGP_HCOOH in series [1] (setting [2]) was 3.70. For the same compound, the efficacy with Phaedon cochleariae (500 g/ha) and in the series on Spodoptera frugiperda was 100% each time.
For the compound `CCOC(=O)c1nc2ccccn2c1SCC` [XXII-1, Ethyl 3-(ethylsulphanyl)imidazo[1,2-a]pyridine-2-carboxylate], the chromatographic logP in series [1] (setting [4]) was found to be 2.05.
`CCSc1ccn2c(SCC)c(-c3nc4cc(C(F)(F)F)ccc4n3C)nc2c1` [Example I-32] came in with an LOGP_HCOOH in series [1] (setting [2]) of 4.23.
For `CCS(=O)(=O)c1c(-c2nc3cc(C(F)(F)F)cnc3s2)nc2ccccn12` [Example I-51], the LOGP_HCOOH in series [1] (setting [2]) turned out to be 3.21. This compound also showed an LOGP_NEUTRAL in series [1] (neutral range, 55° C.) of 3.20.
On to `CCS(=O)(=O)c1c(-c2nc3cc(C(F)(F)F)cnc3o2)nc2ccc(C)cn12` [Example I-56], for which, in series [1] (setting [2]), the LOGP_HCOOH is listed as 2.89.
Take `CC[S+]([O-])c1c(-c2nc3cc(C(F)(F)F)ncc3n2C)nc2ccc(OC)cn12` (stereo not drawn) [Example I-55]: in series [1] (setting [2]), the LOGP_HCOOH is recorded as 2.54. This compound came in with an LOGP_NEUTRAL in series [1] (neutral range, 55° C.) of 2.48.
As to `CCSc1c(-c2nc3cc(C(F)(F)F)ccc3n2C)nc2ccc(Cl)cn12` [Example I-29], the LOGP_HCOOH in series [1] (setting [2]) is on record as 4.12. The efficacy in the series on Phaedon cochleariae (500 g/ha) and in the series with Spodoptera frugiperda was 100% each time.
On to `CCSc1c(-c2nc3cc(C(F)(F)F)ncc3n2C)nc2cccc(C(F)(F)F)n12` [Example I-20], for which, in series [1] (setting [2]), the LOGP_HCOOH stood at 3.50.
`CCSc1c(-c2nc3cc(C(F)(F)F)ccc3n2C)nc2ccc(C)cn12` [Example I-38] registered an LOGP_HCOOH in series [1] (setting [2]) of 3.57.
